SMILES strings stand for the structures.

The data set is described as follows: gradient 5% acetonitrile 3 min, to 50% in 2 min, to 85% in 15 min, held 3 min, 100 µL/min. The conditions noted are these: column: Zorbax Extend-C18 2.1 x 50 mm; eluents: water / acetonitrile, 0.1% formic acid. The method, boiled down: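 Each retention time is based on an adduct peak selected computationally and verified by manual inspection. Measurements used HPLC–quadrupole time-of-flight mass spectrometry in positive and negative ionization mode on mixtures of ~100 pure standards. Chromatography ran on a Zorbax Extend-C18 column (2.1 × 50 mm, 1.8 μm) at 100 μL/min with water and acetonitrile, each containing 0.1% formic acid, and dead and dwell volumes of 40 μL and 900 μL.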
In the case of `Cc1ccc(NC(=O)C2CCCN(c3nc4c(s3)c(C)nn4-c3cccc(F)c3)C2)c(C)c1` (stereo not drawn), the RP-LC retention time stood at 1280 s. Then `CCN1C(=O)c2cccnc2Sc2cc(NC(=O)Cc3ccccc3C)ccc21`, with 898 s; and `O=C(c1ccoc1)N1CCC(c2nc(-c3ccccc3)no2)C1` (stereo not drawn), with 773 s. Compound `Cc1nc2cc(-c3noc(-c4ccsc4)n3)ccc2o1` yielded an RP-LC retention time of 977 s. The same measure for `Cc1nn(CC(=O)N2CCCCCC2)c(=O)c2c(-n3cccc3)n(-c3ccccc3)nc12`: 978 s; for `COc1ccc(-c2nc(C3CC(=O)N(c4ccc(F)c(Cl)c4)C3)no2)cc1` (stereo not drawn): 1050 s; for `CCCOc1ccc(CNC(=O)c2nc3cccnc3n(CC)c2=O)cc1`: 918 s. Compound `COc1ccc(-c2nnc(-c3ccc(OC)c(S(=O)(=O)N4CCOCC4)c3)o2)cc1OC` displayed an RP-LC retention time of 768 s.

As to `Cc1cccc(NC(=O)C(=O)NCCN2CCN(c3ccc(F)cc3)CC2)c1C`, the RP-LC retention time was 584 s. The compound `O=C(Cc1ccc(Cl)cc1)Nc1cnc(-c2ccccc2)nc1` yielded an RP-LC retention time of 1000 s. Then `COc1cccc(-c2ccc(=O)n(Cc3nc(-c4ccccc4Br)no3)n2)c1`, with 997 s.

For `O=C(c1ccc2c(c1)OCO2)N1CCCN(C(=O)C2CC2)c2ccccc21`, the RP-LC retention time turned out to be 715 s.

The compound `O=C1COc2ccc(C(=O)N3CCCCC3)cc2N1` gave an RP-LC retention time of 633 s.

Compound `CCN1CCCC1CNC(=O)Cn1ncn2nc(-c3ccccc3)cc2c1=O` (stereo not drawn) gave an RP-LC retention time of 604 s. In turn, `COc1cccc(CNC(=O)C2(C)CCCN(C(=O)Nc3ccc4c(c3)OCCO4)C2)c1` (stereo not drawn) gave an RP-LC retention time of 802 s. With `Cc1csc(-c2cc(S(=O)(=O)NCCC(C)C)cn2CC(=O)N2CCCCC2)n1`, the RP-LC retention time came out at 1010 s. The compound `Cc1cnc(C2CC2)n1CCNS(=O)(=O)c1ccccc1C(F)(F)F` displayed an RP-LC retention time of 569 s. The compound `O=C(Nc1ccc2c(c1)OCCO2)N1CCC(OCCOc2ccccc2)CC1` came in with an RP-LC retention time of 891 s. Then `C=CCOc1ccnc(-c2ccccc2)n1`, with 1110 s; and `CCCC1(CO)CCCN1C(=O)c1ccc2[nH]ccc2c1` (stereo not drawn), with 745 s; and `CC(C)OC(=O)Cn1nc2ccc(S(=O)(=O)N3CCSCC3)cn2c1=O`, with 829 s. Compound `CCCOc1ccc(-c2nc(N3CCC(C)CC3)c3ccccc3n2)cc1` gave an RP-LC retention time of 1010 s. As for `CCn1c(=O)oc2cc(-c3noc(-c4n[nH]c5c4CCCC5)n3)ccc21`, the RP-LC retention time was 914 s. The compound `N#CCc1ccc(NC(=O)C2CCCN(S(=O)(=O)Cc3ccccc3Cl)C2)cc1` (stereo not drawn) registered an RP-LC retention time of 905 s. Compound `CC1CCN(S(=O)(=O)c2ccc(-c3nnc(C(=O)NC(C)CCc4ccccc4)o3)cc2)CC1` (stereo not drawn) gave an RP-LC retention time of 1170 s. In turn, `Cc1cc(C(=O)Nc2ccc(F)cc2)nc2ccnn12` displayed an RP-LC retention time of 889 s.

`CCn1nc(C)c(CCNC(=O)c2cc3c(=O)n(Cc4cccnc4)ccc3nc2C)c1C` gave an RP-LC retention time of 563 s. Compound `CCc1cc(=O)n(CC(=O)NCc2ccc(C)cc2)c(N2CCOCC2)n1` yielded an RP-LC retention time of 747 s.

As to `COc1ccc(CN(C(=O)COc2ccc(Cl)cc2C)C2CCS(=O)(=O)C2)cc1OC` (stereo not drawn), the RP-LC retention time turned out to be 938 s. `CCOC(=O)C1=C(c2ccc(OC)cc2)NC(=O)NC1c1ccc(OC)cc1` (stereo not drawn) displayed an RP-LC retention time of 840 s. With `CC(C(=O)N1CCN(c2cc(-c3ccccc3)[nH]n2)CC1)c1ccccc1` (stereo not drawn), the RP-LC retention time came to 824 s. Take `O=C(Nc1cc(-c2ccccn2)no1)c1nccc2ccccc12`: the RP-LC retention time worked out at 956 s. `CO[C@H]1C(=O)N(C(C)C)[C@H]1C1CCN(C(=O)CCn2cc(C)cn2)CC1` displayed an RP-LC retention time of 654 s.
